Read-outs that look alike come from different tables or passages of the source.
Legend:
[1] = oral absorption of gallium in rats (4-hour plasma gallium AUC); assay type: in vivo, Male Sprague Dawley rats; conditions: rat, 0.067 mmol/kg, 0-4 hours, absorption from the intestine
Experimental: According to the invention, compounds were tested for oral absorption in rats. Male Sprague Dawley rats weighing 150-225 g were purchased from Harlan Sprague Dawley, Inc. (Indianapolis, Ind.). The gallium standard solution is from Aldrich Chemical Co (Milwaukee, Wis.). Metofane is a product from Pitman-Moore (Mundelein, Ill.), and all other chemicals are commercially available. Gallium test compounds were dissolved in 18 megaohm water (Millipore, Bedford, Mass.) or suspended in 0.5% carboxymethyl cellulose in 5% ethanol, if the compound was not water soluble. The suspensions were sonicated at room temperature for about 5 minutes. […]
Sutures were made with 3-4 stitches with 3-0 silk surgical thread (Ethicon Inc, Somerville, N.J.). […] The blood was placed in 1 ml Eppendorf tubes precoated with 50 μl heparin (1,000 U/ml and air dried, so there was no blood dilution involved. The plasma was recovered after the blood was centrifuged for 2 minutes in a Fischer Micro-centrifuge, Model 235B, and its gallium content measured by a Varian Flameless Atomic Absorption Spectrometer. The standard curve was linear in the gallium concentrations of 5-100 ng/ml. The data under the […] versus time curve (AUC) for 0-4 hours was estimated. […]

[2] = pH 4.5-7; cited from earlier work
gastro-intestinal tract = conditions: pH 4.5-7; cited from earlier work
[3] = system: cancer-associated hypercalcemia; conditions: cited from earlier work
bone = conditions: cited from earlier work
renal toxicity = conditions: cited from earlier work

O=[N+]([O-])[O-].O=[N+]([O-])[O-].O=[N+]([O-])[O-].[Ga+3] [Ga(NO3)3, gallium nitrate]
4-hour plasma gallium AUC [1]: 897 (ng//ml)h

[Ga+3] [gallium(III) aquo-ion]
hydrolysis [2]: extensively hydrolysed to insoluble hydroxides
absorption (gastro-intestinal tract): very poorly absorbed

[Ga] [gallium]
serum calcium ([3]; patients with hypercalcemia of malignancy): reduce serum calcium
efficacy in cancer-associated hypercalcemia ([3]; seven day continuous i.v. infusion): effective
bone strength (bone): increases bone strength
resorption of calcium from bone (bone): inhibiting the resorption of calcium from bone
renal toxicity (renal toxicity; i.v. bolus): renal toxicity is dose-limiting
renal toxicity (renal toxicity; seven day continuous i.v. infusion, cancer-associated hypercalcemia): showed no renal toxicity

From patent publication US5196412A, “Gallium compounds” (Johnson Matthey, Inc., priority 1991, dated 1993)
